Assay results as given in PubChem BioAssay (NCI).
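How tested: cells in 96-well plates exposed to compound for 48 hours at five concentrations. At the TGI there is no net growth.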

Key:
Experiment in all cases: NCI-60 cell line screen, 48 h
[1] = test system: SK-MEL-5 melanoma
[2] = test system: OVCAR-8 ovarian
[3] = test system: NCI-H23 lung
[4] = test system: EKVX NSCLC
[5] = test system: LOX IMVI melanoma
[6] = test system: SK-MEL-2 melanoma
[7] = test system: SK-OV-3 ovarian
[8] = test system: SF-295 CNS
[9] = test system: A498 renal
[10] = test system: HS 578T breast
[11] = test system: CCRF-CEM leukemia
[12] = test system: HCT-116 colon
[13] = test system: MALME-3M melanoma
[14] = test system: SF-268 CNS
[15] = test system: RXF 393 renal
[16] = test system: A549 NSCLC
[17] = test system: PC-3 prostate
[18] = test system: COLO 205 colon
[19] = test system: U251 CNS
[20] = test system: TK-10 renal
[21] = test system: HCC-2998 colon
[22] = test system: SNB-75 CNS
[23] = test system: BT-549 breast
[24] = test system: HT29 colon
[25] = test system: SN12C renal
[26] = test system: NCI-H460 lung
[27] = test system: K-562 leukemia
[28] = test system: KM12 colon
[29] = test system: IGROV1 ovarian
[30] = test system: OVCAR-3 ovarian
[31] = test system: SR leukemia
[32] = test system: UACC-257 melanoma
[33] = test system: UACC-62 melanoma
[34] = test system: SK-MEL-28 melanoma
[35] = test system: CAKI-1 renal
[36] = test system: HOP-92 NSCLC
[37] = test system: SF-539 CNS
[38] = test system: MCF7 breast
[39] = test system: 786-0 renal
[40] = test system: DU-145 prostate
[41] = test system: ACHN renal
[42] = test system: SNB-19 CNS
[43] = test system: MDA-MB-435
[44] = test system: MDA-N
[45] = test system: M14 melanoma
[46] = test system: MOLT-4 leukemia
[47] = test system: UO-31 renal
[48] = test system: HCT-15 colon
[49] = test system: RPMI-8226 leukemia
[50] = test system: OVCAR-4 ovarian
[51] = test system: HOP-62 NSCLC
[52] = test system: T-47D breast
[53] = test system: NCI/ADR-RES ovarian
[54] = test system: SW-620 colon
[55] = test system: OVCAR-5 ovarian
[56] = test system: HL-60(TB) leukemia
[57] = test system: MDA-MB-231 breast
[58] = test system: NCI-H522 lung
[59] = test system: NCI-H226 lung

In the case of `COc1ccc(/C=C2\C(=O)N(C3OC(COC(C)=O)C(OC(C)=O)C(OC(C)=O)C3OC(C)=O)c3ccccc3N=C2N)cc1` (centres undefined), the TGI [1] is reported as 23.4 µM, the TGI [2] is reported as 45.6 µM and the TGI [3] is reported as 59.1 µM. For the same compound, the TGI [4] was over 100 µM, the TGI [5] was 89.4 µM and the TGI [6] was 66.9 µM. For the same compound, the TGI [7] was over 100 µM, the TGI [8] was 72.1 µM and the TGI [9] was over 100 µM. For the same compound, the TGI [10] was over 100 µM, the TGI [11] was over 100 µM and the TGI [12] was 49.7 µM. For the same compound, the TGI [13] was 84.5 µM, the TGI [14] was over 100 µM and the TGI [15] was 62.2 µM. It also gave a TGI [16] of over 100 µM, a TGI [17] of 83.3 µM and a TGI [18] of 34 µM. The TGI [19] was over 100 µM, the TGI [20] was 99.2 µM and the TGI [21] was 54.4 µM. It also gave a TGI [22] of 54 µM, a TGI [23] of 71.6 µM and a TGI [24] of 38 µM. The TGI [25] was over 100 µM, the TGI [26] was 75.8 µM and the TGI [27] was 38.1 µM. For the same compound, the TGI [28] was over 100 µM, the TGI [29] was over 100 µM and the TGI [30] was 65.1 µM. It also gave a TGI [31] of 53.6 µM, a TGI [32] of 72.5 µM and a TGI [33] of 45.8 µM. It also gave a TGI [34] of 72.2 µM, a TGI [35] of over 100 µM and a TGI [36] of over 100 µM. For the same compound, the TGI [37] was 21.4 µM, the TGI [38] was over 100 µM and the TGI [39] was 37.5 µM. The TGI [40] was 87.6 µM, the TGI [41] was over 100 µM and the TGI [42] was over 100 µM. It also gave a TGI [43] of 35.7 µM, a TGI [44] of 26 µM and a TGI [45] of 71.8 µM. The TGI [46] was 39.7 µM, the TGI [47] was over 100 µM and the TGI [48] was over 100 µM. For the same compound, the TGI [49] was 37.5 µM, the TGI [50] was over 100 µM and the TGI [51] was over 100 µM. For the same compound, the TGI [52] was 40.8 µM, the TGI [53] was 83.9 µM and the TGI [54] was over 100 µM. For the same compound, the TGI [55] was over 100 µM, the TGI [56] was 41.9 µM and the TGI [57] was over 100 µM.

For `COc1ccc2oc(=N)c(C(=O)NCc3ccccc3)cc2c1`, the TGI [1] was over 100 µM, the TGI [2] was 40.4 µM and the TGI [3] was 43.1 µM. For the same compound, the TGI [58] was 43.5 µM, the TGI [4] was over 100 µM and the TGI [5] was over 100 µM. It also gave a TGI [6] of 43.5 µM, a TGI [7] of 56.7 µM and a TGI [8] of 65 µM. For the same compound, the TGI [9] was 35.1 µM, the TGI [10] was 42.7 µM and the TGI [11] was over 100 µM. The TGI [12] was over 100 µM, the TGI [13] was 39.3 µM and the TGI [14] was 52.5 µM. For the same compound, the TGI [59] was 85 µM, the TGI [15] was 42.4 µM and the TGI [16] was over 100 µM. The TGI [17] was over 100 µM, the TGI [18] was over 100 µM and the TGI [19] was 37.2 µM. For the same compound, the TGI [20] was over 100 µM, the TGI [22] was 35 µM and the TGI [23] was 45.4 µM. For the same compound, the TGI [24] was over 100 µM, the TGI [25] was over 100 µM and the TGI [26] was over 100 µM. For the same compound, the TGI [27] was 86.8 µM, the TGI [28] was 29.6 µM and the TGI [29] was 60.8 µM. For the same compound, the TGI [30] was over 100 µM, the TGI [31] was over 100 µM and the TGI [32] was over 100 µM. The TGI [34] was over 100 µM, the TGI [35] was over 100 µM and the TGI [37] was 56.6 µM. For the same compound, the TGI [38] was 69.1 µM, the TGI [39] was over 100 µM and the TGI [40] was 88.8 µM. The TGI [41] was 73.9 µM, the TGI [42] was over 100 µM and the TGI [43] was 34.2 µM. For the same compound, the TGI [44] was 59.9 µM, the TGI [45] was over 100 µM and the TGI [46] was over 100 µM. The TGI [47] was over 100 µM, the TGI [48] was over 100 µM and the TGI [49] was over 100 µM. The TGI [50] was over 100 µM, the TGI [51] was 55.8 µM and the TGI [52] was 44.6 µM. For the same compound, the TGI [53] was 36.8 µM, the TGI [54] was 55.6 µM and the TGI [55] was over 100 µM. It also gave a TGI [56] of over 100 µM and a TGI [57] of 58.1 µM.

With `CCOC(=O)N(Cc1cccs1)c1cc(OC)c(OC)c(OC)c1` the TGI [1] was over 100 µM, the TGI [2] was over 100 µM and the TGI [3] was over 100 µM. It also gave a TGI [58] of over 100 µM, a TGI [4] of over 100 µM and a TGI [5] of over 100 µM. For the same compound, the TGI [6] was over 100 µM, the TGI [8] was over 100 µM and the TGI [9] was over 100 µM. For the same compound, the TGI [10] was over 100 µM, the TGI [11] was 69.3 µM and the TGI [12] was over 100 µM. It also gave a TGI [13] of over 100 µM, a TGI [14] of over 100 µM and a TGI [59] of over 100 µM. For the same compound, the TGI [15] was over 100 µM, the TGI [16] was over 100 µM and the TGI [17] was 98.9 µM. It also gave a TGI [18] of 32.9 µM, a TGI [19] of over 100 µM and a TGI [20] of over 100 µM. The TGI [21] was over 100 µM, the TGI [22] was over 100 µM and the TGI [23] was over 100 µM. The TGI [24] was over 100 µM, the TGI [25] was over 100 µM and the TGI [26] was over 100 µM. The TGI [27] was 65.7 µM, the TGI [28] was over 100 µM and the TGI [29] was over 100 µM. For the same compound, the TGI [30] was over 100 µM, the TGI [31] was 65.5 µM and the TGI [32] was over 100 µM. For the same compound, the TGI [33] was over 100 µM, the TGI [34] was over 100 µM and the TGI [35] was over 100 µM. It also gave a TGI [38] of over 100 µM, a TGI [39] of over 100 µM and a TGI [40] of over 100 µM. For the same compound, the TGI [41] was over 100 µM, the TGI [42] was over 100 µM and the TGI [43] was 63.2 µM. It also gave a TGI [44] of 90.8 µM, a TGI [45] of over 100 µM and a TGI [46] of 36 µM. The TGI [47] was over 100 µM, the TGI [48] was over 100 µM and the TGI [49] was 51.9 µM. For the same compound, the TGI [50] was over 100 µM, the TGI [51] was over 100 µM and the TGI [52] was over 100 µM. It also gave a TGI [53] of 29.2 µM, a TGI [54] of over 100 µM and a TGI [55] of over 100 µM. It also gave a TGI [56] of over 100 µM and a TGI [57] of over 100 µM.
